{"source": "patent US20200016173A1", "about": "(CHINA MEDICAL UNIVERSITY, priority 2016, published 2020)", "key": {"[1]": {"tested_on": "human stomach gastric carcinoma (SNU-1) xenograft", "experiment": "human-tumor xenograft in athymic nude mice", "type": "in vivo", "settings": "I.P., 5-FU 5 mg/kg, Exe 100 mg/kg, 3 times/wk for 4-wks"}, "gastric cancer": {"tested_on": "gastric cancer", "settings": "fluorouracil chemotherapy, GCa patients; cited from earlier work"}}, "data": [{"smiles": "O=c1[nH]cc(F)c(=O)[nH]1", "note": "[5-FU, fluorouracil]", "values": [{"measurement": "tumor growth", "setting": "[1]", "value": "suppress"}, {"measurement": "toxicity (patients with other gastrointestinal malignancies)", "setting": "gastric cancer", "value": "> 50", "unit": "% patients"}]}]}
